Patent US12473304B2, “Heterocyclic PAD4 inhibitors” (BRISTOL-MYERS SQUIBB COMPANY, priority 2020, dated 2025)

Target: human PAD4 (hPAD4) (Homo sapiens (Human), UniProt Q9UM07)
Experiment: RFMS Human PAD4 Functional Assay 1
Format: biochemical
Conditions: RFMS assay 1; 5 nM hPAD4, 250 μM BAEE substrate, 50 μM calcium, 37° C.
Method in brief: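 Recombinant hPAD4 (5 nM) was preincubated with compound (top 50 μM, 0.5% DMSO) for 30 min at 37 °C, then reacted with 250 μM BAEE for 90 min at 37 °C in pH 7.5 HEPES buffer with 50 μM calcium and 5 μM TPEN. Product was derivatized with phenyl glyoxal and quantified by RapidFire MS.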

human PAD4 (hPAD4), sequence (Q9UM07 whole entry): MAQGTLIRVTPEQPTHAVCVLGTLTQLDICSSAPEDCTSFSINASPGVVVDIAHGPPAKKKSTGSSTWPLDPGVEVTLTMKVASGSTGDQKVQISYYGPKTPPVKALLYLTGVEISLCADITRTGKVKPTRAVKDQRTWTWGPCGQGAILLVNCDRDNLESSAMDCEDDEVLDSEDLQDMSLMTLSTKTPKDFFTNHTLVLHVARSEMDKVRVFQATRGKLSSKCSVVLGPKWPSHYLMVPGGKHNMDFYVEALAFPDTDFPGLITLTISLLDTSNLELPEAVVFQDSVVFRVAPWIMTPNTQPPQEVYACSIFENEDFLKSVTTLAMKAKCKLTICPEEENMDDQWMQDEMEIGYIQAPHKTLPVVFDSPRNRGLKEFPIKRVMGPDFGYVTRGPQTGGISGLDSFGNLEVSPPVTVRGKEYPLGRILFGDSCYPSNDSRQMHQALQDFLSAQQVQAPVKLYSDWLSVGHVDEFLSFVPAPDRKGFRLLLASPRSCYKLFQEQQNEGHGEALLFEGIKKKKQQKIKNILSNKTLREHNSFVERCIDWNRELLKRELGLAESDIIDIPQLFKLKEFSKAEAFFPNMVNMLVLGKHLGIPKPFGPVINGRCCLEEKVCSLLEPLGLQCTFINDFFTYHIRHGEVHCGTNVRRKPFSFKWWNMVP

IC50	SMILES
220 nM	Cc1cc(C(N)=O)c(F)cc1-c1ccc2cc(-c3nn4cc(C(=O)N5CC6CCC5[C@@H]6N)cc(F)c4c3C)n(CC3CC3)c2n1 (stereo partly drawn) [Example 260, 4-(2-{6-[(7R)-7-Amino-2-azabicyclo[2.2.1]heptane-2-carbonyl]-4-fluoro-3-methylpyrazolo[1,5-a]pyridin-2-yl}-1-(cyclopropylmethyl)-1H-pyrrolo[2,3-b]pyridin-6-yl)-2-fluoro-5-methylbenzamide]
420 nM	Cc1c(-c2cc3ccc(-c4ccc(N5CCNC5=O)cc4)nc3n2CC2CC2)nn2cc(C(=O)N3CC4CCC3[C@@H]4N)cc(F)c12 (stereo partly drawn) [Example 261, 1-[4-(2-{6-[(7R)-7-Amino-2-azabicyclo[2.2.1]heptane-2-carbonyl]-4-fluoro-3-methylpyrazolo[1,5-a]pyridin-2-yl}-1-(cyclopropylmethyl)-1H-pyrrolo[2,3-b]pyridin-6-yl)phenyl]imidazolidin-2-one]
120 nM	Cc1cc(-c2ccc3cc(-c4nn5cc(C(=O)N6CC7CCC6[C@@H]7N)cc(F)c5c4C)n(CC4CC4)c3n2)ccc1C(N)=O (stereo partly drawn) [Example 262, 4-(2-{6-[(7R)-7-Amino-2-azabicyclo[2.2.1]heptane-2-carbonyl]-4-fluoro-3-methylpyrazolo[1,5-a]pyridin-2-yl}-1-(cyclopropylmethyl)-1H-pyrrolo[2,3-b]pyridin-6-yl)-2-methylbenzamide]
90 nM	Cc1c(-c2cc3ccc(-c4ccc(C(N)=O)cc4)nc3n2CC2CC2)nn2cc(C(=O)N3CC4CCC3[C@@H]4N)cc(F)c12 (stereo partly drawn) [Example 263, 4-(2-{6-[(7R)-7-Amino-2-azabicyclo[2.2.1]heptane-2-carbonyl]-4-fluoro-3-methylpyrazolo[1,5-a]pyridin-2-yl}-1-(cyclopropylmethyl)-1H-pyrrolo[2,3-b]pyridin-6-yl)benzamide]
10 nM	CNC(=O)c1ccc(-c2ccc3cc(-c4nn5cc(C(=O)N6CC7CCC6[C@@H]7N)cc(F)c5c4C)n(CC4CC4)c3n2)cn1 (stereo partly drawn) [Example 264, 5-(2-{6-[(7R)-7-Amino-2-azabicyclo[2.2.1]heptane-2-carbonyl]-4-fluoro-3-methylpyrazolo[1,5-a]pyridin-2-yl}-1-(cyclopropylmethyl)-1H-pyrrolo[2,3-b]pyridin-6-yl)-N-methylpyridine-2-carboxamide]
110 nM	Cc1c(-c2cc3ccc(N4CCC[C@@H](O)C4)nc3n2CC2CC2)nn2cc(C(=O)N3CC4CCC3[C@@H]4N)cc(F)c12 (stereo partly drawn) [Example 265, ((7R)-7-Amino-2-azabicyclo[2.2.1]heptan-2-yl)(2-(1-(cyclopropylmethyl)-6-((R)-3-hydroxypiperidin-1-yl)-1H-pyrrolo[2,3-b]pyridin-2-yl)-4-fluoro-3-methylpyrazolo[1,5-a]pyridin-6-yl)methanone]
280 nM	Cc1c(-c2cc3ccc(N4CCOCC4)nc3n2CC2CC2)nn2cc(C(=O)N3CC4CCC3[C@@H]4N)cc(F)c12 (stereo partly drawn) [Example 266, (7R)-2-{2-[1-(Cyclopropylmethyl)-6-(morpholin-4-yl)-1H-pyrrolo[2,3-b]pyridin-2-yl]-4-fluoro-3-methylpyrazolo[1,5-a]pyridine-6-carbonyl}-2-azabicyclo[2.2.1]heptan-7-amine]
50 nM	Cc1c(-c2cc3ccc(N4CCOCC4=O)nc3n2CC2CC2)nn2cc(C(=O)N3CC4CCC3[C@@H]4N)cc(F)c12 (stereo partly drawn) [Example 267, 4-(2-{6-[(7R)-7-Amino-2-azabicyclo[2.2.1]heptane-2-carbonyl]-4-fluoro-3-methylpyrazolo[1,5-a]pyridin-2-yl}-1-(cyclopropylmethyl)-1H-pyrrolo[2,3-b]pyridin-6-yl)morpholin-3-one]
40 nM	Cc1c(-c2cc3ccc(N4CCC(S(C)(=O)=O)CC4)nc3n2CC2CC2)nn2cc(C(=O)N3CC4CCC3[C@@H]4N)cc(F)c12 (stereo partly drawn) [Example 268, (7R)-2-{2-[1-(Cyclopropylmethyl)-6-(4-methanesulfonylpiperidin-1-yl)-1H-pyrrolo[2,3-b]pyridin-2-yl]-4-fluoro-3-methylpyrazolo[1,5-a]pyridine-6-carbonyl}-2-azabicyclo[2.2.1]heptan-7-amine]
540 nM	Cc1c(-c2cc3ccc(N4CCC5(CC4)CN(C)C(=O)O5)nc3n2CC2CC2)nn2cc(C(=O)N3CCC[C@@H](N)C3)cc(F)c12 [Example 269, 8-(2-{6-[(3R)-3-Aminopiperidine-1-carbonyl]-4-fluoro-3-methylpyrazolo[1,5-a]pyridin-2-yl}-1-(cyclopropylmethyl)-1H-pyrrolo[2,3-b]pyridin-6-yl)-3-methyl-1-oxa-3,8-diazaspiro[4.5]decan-2-one]
2110 nM	Cc1c(-c2cc3ccc(N4CCC(S(C)(=O)=O)CC4)nc3n2CC2CC2)nn2cc(C(=O)N3CCC[C@@H](N)C3)cc(F)c12 [Example 270, (3R)-1-{2-[1-(Cyclopropylmethyl)-6-(4-methanesulfonylpiperidin-1-yl)-1H-pyrrolo[2,3-b]pyridin-2-yl]-4-fluoro-3-methylpyrazolo[1,5-a]pyridine-6-carbonyl}piperidin-3-amine]
2070 nM	CC(=O)N(C)C1CCN(c2ccc3cc(-c4nn5cc(C(=O)N6CCC[C@@H](N)C6)cc(F)c5c4C)n(CC4CC4)c3n2)CC1 [Example 271, N-[1-(2-{6-[(3R)-3-Aminopiperidine-1-carbonyl]-4-fluoro-3-methylpyrazolo[1,5-a]pyridin-2-yl}-1-(cyclopropylmethyl)-1H-pyrrolo[2,3-b]pyridin-6-yl)piperidin-4-yl]-N-methylacetamide]
3810 nM	COC(=O)N(C)C1CCN(c2ccc3cc(-c4nn5cc(C(=O)N6CCC[C@@H](N)C6)cc(F)c5c4C)n(CC4CC4)c3n2)CC1 [Example 272, Methyl N-[1-(2-{6-[(3R)-3-aminopiperidine-1-carbonyl]-4-fluoro-3-methylpyrazolo[1,5-a]pyridin-2-yl}-1-(cyclopropylmethyl)-1H-pyrrolo[2,3-b]pyridin-6-yl)piperidin-4-yl]-N-methylcarbamate]
2420 nM	Cc1c(-c2cc3ccc(N4CCC(N5CCCC5=O)CC4)nc3n2CC2CC2)nn2cc(C(=O)N3CCC[C@@H](N)C3)cc(F)c12 [Example 273, 1-[1-(2-{6-[(3R)-3-Aminopiperidine-1-carbonyl]-4-fluoro-3-methylpyrazolo[1,5-a]pyridin-2-yl}-1-(cyclopropylmethyl)-1H-pyrrolo[2,3-b]pyridin-6-yl)piperidin-4-yl]pyrrolidin-2-one]
270 nM	Cc1c(-c2cc3ccc(OC[C@@H]4CCC(=O)N4)nc3n2CC2CC2)nn2cc(C(=O)N3CC4CCC3[C@@H]4N)cc(F)c12 (stereo partly drawn) [Example 274, (5S)-5-{[(2-{6-[(7R)-7-Amino-2-azabicyclo[2.2.1]heptane-2-carbonyl]-4-fluoro-3-methylpyrazolo[1,5-a]pyridin-2-yl}-1-(cyclopropylmethyl)-1H-pyrrolo[2,3-b]pyridin-6-yl)oxy]methyl}pyrrolidin-2-one]
2770 nM	COC1CCN(c2ccc3cc(-c4nn5cc(C(=O)N6CCC[C@@H](N)C6)cc(Cl)c5c4C)n(CC4CC4)c3n2)CC1 [Example 276, (3R)-1-{4-Chloro-2-[1-(cyclopropylmethyl)-6-(4-methoxypiperidin-1-yl)-1H-pyrrolo[2,3-b]pyridin-2-yl]-3-methylpyrazolo[1,5-a]pyridine-6-carbonyl}piperidin-3-amine]
220 nM	Cc1cc(C(N)=O)c(F)cc1-c1ccc2cc(-c3nn4cc(C(=O)N5CCC[C@@H](N)C5)cc(F)c4c3C)n(CC3CC3)c2n1 [Example 277, 4-(2-{6-[(3R)-3-Aminopiperidine-1-carbonyl]-4-fluoro-3-methylpyrazolo[1,5-a]pyridin-2-yl}-1-(cyclopropylmethyl)-1H-pyrrolo[2,3-b]pyridin-6-yl)-2-fluoro-5-methylbenzamide]
390 nM	Cc1c(-c2cc3ccc(-c4cccc(O)c4Cl)nc3n2CC2CC2)nn2cc(C(=O)N3CCC[C@@H](N)C3)cc(F)c12 [Example 278, 3-(2-{6-[(3R)-3-Aminopiperidine-1-carbonyl]-4-fluoro-3-methylpyrazolo[1,5-a]pyridin-2-yl}-1-(cyclopropylmethyl)-1H-pyrrolo[2,3-b]pyridin-6-yl)-2-chlorophenol]
200 nM	Cc1c(-c2cc3ccc(-c4ccc(C(N)=O)c(F)c4)nc3n2CC2CC2)nn2cc(C(=O)N3CCC[C@@H](N)C3)cc(F)c12 [Example 279, 4-(2-{6-[(3R)-3-Aminopiperidine-1-carbonyl]-4-fluoro-3-methylpyrazolo[1,5-a]pyridin-2-yl}-1-(cyclopropylmethyl)-1H-pyrrolo[2,3-b]pyridin-6-yl)-2-fluorobenzamide]
1090 nM	Cc1c(-c2cc3ccc(-c4ccc(N5CCNC5=O)cc4)nc3n2CC2CC2)nn2cc(C(=O)N3CCC[C@@H](N)C3)cc(F)c12 [Example 280, 1-[4-(2-{6-[(3R)-3-Aminopiperidine-1-carbonyl]-4-fluoro-3-methylpyrazolo[1,5-a]pyridin-2-yl}-1-(cyclopropylmethyl)-1H-pyrrolo[2,3-b]pyridin-6-yl)phenyl]imidazolidin-2-one]
140 nM	Cc1c(-c2cc3ccc(-c4ccccc4N4CCNC4=O)nc3n2CC2CC2)nn2cc(C(=O)N3CCC[C@@H](N)C3)cc(F)c12 [Example 281, 1-[2-(2-{6-[(3R)-3-Aminopiperidine-1-carbonyl]-4-fluoro-3-methylpyrazolo[1,5-a]pyridin-2-yl}-1-(cyclopropylmethyl)-1H-pyrrolo[2,3-b]pyridin-6-yl)phenyl]imidazolidin-2-one]
170 nM	Cc1c(O)cccc1-c1ccc2cc(-c3nn4cc(C(=O)N5CCC[C@@H](N)C5)cc(F)c4c3C)n(CC3CC3)c2n1 [Example 282, 3-(2-{6-[(3R)-3-Aminopiperidine-1-carbonyl]-4-fluoro-3-methylpyrazolo[1,5-a]pyridin-2-yl}-1-(cyclopropylmethyl)-1H-pyrrolo[2,3-b]pyridin-6-yl)-2-methylphenol]
